In ChEMBL document CHEMBL1147704, “Design and synthesis of 7H-pyrrolo[2,3-d]pyrimidines as focal adhesion kinase inhibitors. Part 2” (Bioorg Med Chem Lett, 2006):

Biological target: Focal adhesion kinase 1 (Homo sapiens, UniProt Q05397)
Sequence (Q05397 whole entry): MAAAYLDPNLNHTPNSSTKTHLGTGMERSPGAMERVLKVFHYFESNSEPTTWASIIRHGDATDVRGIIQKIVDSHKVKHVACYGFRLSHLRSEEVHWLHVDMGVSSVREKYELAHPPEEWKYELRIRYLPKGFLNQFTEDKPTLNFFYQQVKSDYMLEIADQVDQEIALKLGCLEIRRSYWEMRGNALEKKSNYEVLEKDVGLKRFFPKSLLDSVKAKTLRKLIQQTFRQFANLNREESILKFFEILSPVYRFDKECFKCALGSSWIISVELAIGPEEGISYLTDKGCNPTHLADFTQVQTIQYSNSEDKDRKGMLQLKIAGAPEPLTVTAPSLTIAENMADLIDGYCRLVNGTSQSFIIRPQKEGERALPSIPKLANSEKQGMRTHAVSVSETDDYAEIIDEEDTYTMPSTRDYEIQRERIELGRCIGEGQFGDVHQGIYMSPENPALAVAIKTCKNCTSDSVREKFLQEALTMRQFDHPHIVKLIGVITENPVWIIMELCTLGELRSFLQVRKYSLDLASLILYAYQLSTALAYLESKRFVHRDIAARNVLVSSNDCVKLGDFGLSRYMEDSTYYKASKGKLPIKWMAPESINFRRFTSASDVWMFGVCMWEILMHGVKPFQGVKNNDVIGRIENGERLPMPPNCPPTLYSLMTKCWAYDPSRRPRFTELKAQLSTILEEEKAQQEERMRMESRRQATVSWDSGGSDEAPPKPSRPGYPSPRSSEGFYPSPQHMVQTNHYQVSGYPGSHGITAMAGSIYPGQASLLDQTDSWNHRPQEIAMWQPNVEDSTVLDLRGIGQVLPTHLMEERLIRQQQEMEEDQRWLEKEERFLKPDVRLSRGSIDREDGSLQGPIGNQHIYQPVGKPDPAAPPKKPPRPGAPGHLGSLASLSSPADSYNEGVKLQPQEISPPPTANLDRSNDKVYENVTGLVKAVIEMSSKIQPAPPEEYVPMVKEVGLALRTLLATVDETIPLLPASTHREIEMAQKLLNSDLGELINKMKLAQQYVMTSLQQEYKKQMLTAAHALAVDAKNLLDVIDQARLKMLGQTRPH

`COc1cc(Nc2ncc3ccn(-c4ccccn4)c3n2)cc(OC)c1OC` gave an IC50 of 212 nM.
With `COc1cc(Nc2ncc3ccn(-c4cccc(CCC(=O)O)n4)c3n2)cc(OC)c1OC` the IC50 was 4 nM.
